Values after ≈ are worked out from the molar mass of the structure shown.
Experiments:
[1] = cited from earlier work
[2] = Solubility testing in phosphate buffer saline pH 7.4 (HPLC with calibration curve); type: physicochemical
Description: Solubility testing was performed with the following test items and conditions: • Test items: axitinib (99.99% purity by HPLC); axitinib-N-succinoyloxymethyl prodrug (94.3% purity by HPLC); • Test media: phosphate buffer saline pH 7.4 • Incubation condition: 24 hour at 22° C. with continuous shaking • Test concentration: 1 mg/mL • Data analysis: Solubility of test item was determined by HPLC analysis with calibration curve

CNC(=O)c1ccccc1Sc1ccc2c(/C=C/c3ccccn3)n[nH]c2c1 [Axitinib, axitinib]
literature reported solubility [1]: about 0.2 mcg/mL | solubility at 24 h ([2]; 22 °C, pH 7.4, aqueous buffer, thermodynamic from solid): < 0.78 µg/mL

CNC(=O)c1ccccc1Sc1ccc2c(/C=C/c3ccccn3)nn(COC(=O)CCC(=O)O)c2c1 [N-Succinoyloxymethyl Prodrug, axitinib-N-succinoyloxymethyl]
Solubility ([2]; phosphate buffer saline pH 7.4, 24 hour at 22° C. with continuous shaking, test concentration 1 mg/mL): 217.4 µg/mL (≈ 421 µM) | solubility of the prodrug enhanced (fold vs axitinib) ([2]; relative to literature reported solubility of axitinib (about 0.2 mcg/mL)): ~1100 ×
